In patent US20050113443A1, “Modulation of airway inflammation in patients with cystic fibrosis and related diseases” (priority 2003, published 2005):

Legend:
[1] = tested on: primary human bronchial epithelial cells; assay: P. aeruginosa-induced IL-8 secretion by primary human bronchial epithelial cells (ELISA); format: cell-based; conditions: cells treated 2 h with analogue (nanomolar concentrations), stimulated 1 h with 3×10^7 cfu P. aeruginosa PA01, supernatants after 4 more hours, vs vehicle (0.01% ethanol), FIG. 2, P<0.002
Procedure: We further examined whether LX analogues were able to inhibit P. aeruginosa-induced IL 8 production from primary human bronchial epithelial cells. Primary bronchial epithelial cells from non-smokers obtained from Clonetics/Cambrex were grown until subconfluent, treated for 2 h with LXA4 analogue or vehicle control (0.01% ethanol), stimulated for 1 h with 3×10^7 cfu of P. aeruginosa strain PA01, and subsequently washed. Cell-free supernatants were harvested after 4 more hours of incubation, and analyzed by ELISA for IL-8 secretion. For this purpose we used the metabolically stable analog 15-epi-16-(p-fluorophenoxy) LXA4 methyl ester, prepared according to Example 2. […] Primary human bronchial epithelial cells were pretreated with an LXA4 analogue (15-epi-16-[p-fluorophenoxy LXA4] methyl ester) or vehicle control and subsequently stimulated with P. aeruginosa strain PA01. IL-8 was measured in cell-free supernatants. Mean IL-8 production was 1620±116 pg/ml in vehicle control cultures.

[2] = tested on: C57BL/6 mice challenged intratracheally with mucoid P. aeruginosa (strain M57-15); assay: Mouse model of chronic airway inflammation and infection of cystic fibrosis (mucoid P. aeruginosa entrapped in agarose beads); format: in vivo; conditions: vs vehicle controls
Text: Chronic infections with mucoid P. aeruginosa tend to persist in patients with CF. In turn, chronic airway infection with mucoid P. aeruginosa is a major cause of morbidity and mortality among CF patients. In order to achieve chronic airway infections with P. aeruginosa in murine models, it is necessary to enmesh the bacteria with an immobilizing agent such as agar (Pediatr Pulmonol 30:413.; Lab Animals 36:291). This also provides an experimental mimic of the growth of P. aeruginosa as a biofilm, which appears to be its predominant state in the CF airway (Pediatr Pulmonol 30:413, 2000; Pediatr Res 22:698, 1987; Trends Microbiol 9:50, 2001). C57/B16 mice are used, as the inflammatory response to P. aeruginosa infection of this moderately susceptible strain is a fair mimic of that seen in CF patients (Pediatr Pulmonol 30:413). Indeed, in C57/B16 mice, agar bead delivery of P. aeruginosa leads to histopathological changes, including bronchiectasis, similar to those found in patients with CF (Pediatr Pulmonol 30:413, 2000). This chronic model allows for the characterization of the effects of LX analogues on chronic, ongoing airway infection and inflammation using a model that is highly relevant to, and a reasonable mimic of, the CF airway.
Modifications were made in a previously described model (van Heeckeren, A. M. etal Lab Anim 36, 291, 2002). 6-8 week old female C57BL/6 mice were immunized in the dermis of the ear with heat-killed P. aeruginosa (mucoid strain M57-15) in incomplete Freund's adjuvant 10 days prior to P. aeruginosalagar bead challenge. Mice were challenged intratracheally (non-traumatically as previously described, Wills-Karp, M. et al. Science 282, 2258, 1998) with 3×10^4 P. aeruginosa (mucoid strain M57-15) entrapped in […] agarose beads. Beginning 1 day prior to such challenge, mice were treated with an LXA4 analogue (15-epi-16-[p-fluorophenoxy LXA4] methyl ester) by oral administration, through placing 10 μg/ml of the analogue in the drinking water (Gewirtz, A. T. et al. J Immunol 168, 5260, 2002), supplemented with a single daily intravenous dose of 1 μg by tail vein. Controls received trace volumes (identical to that administered to lipoxin analogue-treated mice) of ethanol in drinking water and intravenously. Mice were weighed daily. Five days after P. aeruginosa/agar bead challenge, mice were sacrificed, BAL was performed, and lungs were harvested for measurement of lung Pseudomonas burden and myeloperoxidase by standard techniques (van Heeckeren, A. M. et al Lab Anim 36, 291, 2002; Wills-Karp, M. et al. Science 282, 2258, 1998; Andrews, P. C. et al. Anal Biochem 127, 346, 1982). Animal care was provided in accordance with National Institutes of Health guidelines. This was done in order to model an additional immunological feature of individuals with cystic fibrosis and P. aeruginosa colonization/infection: potent adaptive immune responses, marked by anti-pseudomonal antibodies and T cells reactive with pseudomonal proteins.
C57/B16 mice were challenged intratracheally (non-traumatically as previously described [Science 282:2258, 1998; Nature Immunol 1:221,2000]) with 3×10^4 P. aeruginosa (mucoid strain M57-15) entrapped in agar beads (70-200 uM). […]

COC(=O)CCC[C@H](O)[C@H](O)/C=C/C=C/C=C\C=C\[C@H](O)COc1ccc(F)cc1 [(5S, 6R, 15S)-trihydroxy-16-(4-fluorophenoxy)-hexadeca-(7E, 9E, 11Z,13E)-tetraenoic acid methyl ester]
P. aeruginosa-mediated IL-8 secretion [1]: inhibits
P. aeruginosa-mediated IL-8 secretion ([1]; listed as LXA4 analogue): significantly inhibits
weight loss ([2]; 10 μg/ml in drinking water plus 1 μg i.v. daily from 1 day before challenge, weighed daily, FIG. 3): less weight loss
recovery of lost weight ([2]; 10 μg/ml in drinking water plus 1 μg i.v. daily, weighed daily, FIG. 3): earlier and more complete recovery of lost weight
bronchoalveolar lavage total cell counts ([2]; BAL five days after challenge, FIG. 4A): significant suppression of total cell counts
airway neutrophilia (BAL neutrophils) ([2]; BAL five days after challenge, FIG. 4B): significant inhibition of airway neutrophilia
airway lymphocyte counts ([2]; BAL five days after challenge, FIG. 4C): significant increase in airway lymphocyte counts
percentage of airway macrophages ([2]; BAL five days after challenge, FIG. 4D): increase in the percentage of airway macrophages
neutrophil/lymphocyte ratio in the airway ([2]; BAL five days after challenge, FIG. 4E): significant decrease
neutrophil/macrophage ratio in the airway ([2]; BAL five days after challenge, FIG. 4F): significant decrease
whole lung P. aeruginosa burden ([2]; lungs harvested five days after challenge, quantitative microbiological techniques, FIG. 6): decrease in lung bacterial burden
whole lung myeloperoxidase levels (neutrophil accumulation in the lung parenchyma) ([2]; lungs harvested five days after challenge, FIG. 5): significantly reduced neutrophil accumulation in the lung parenchyma
